In patent US5599789A, “Method for the treatment of tumours and sarcomas” (Amrad Corporation Limited, priority 1991, dated 1997):
Entries after “also recorded” stand apart in the source; their conditions may differ.

How the values were obtained:
[1] = tested on: Ewing's Sarcoma cell line Al (uncloned); test: Colony formation in semi-solid agar cultures, Al (uncloned) cells; type: cell-based, human; details: Al(uncloned), 5,000 cells, day 18
Procedure: (§1) Tumour cells obtained from biopsy and bone marrow specimens from patients with Ewing's Sarcoma were used in these studies. Approval for this project has been obtained from the Ethics Committee of the Royal Children's Hospital.
(§2) Single cell suspensions of tumour cells were obtained by mechanical disruption with an 18G or 21G needle or by pipetting, followed by incubation with dispase II (Boehringer) at a concentration of 1.2 units per ml for 10 minutes at 37° C. Prior to the addition to agar-medium the cells were vortexed gently to prevent clumping.
(§3) Clonal cell lines were grown in Iscove's Modified Dulbecco's Medium (IMDM) supplemented with 10% v/v foetal calf serum (FCS; CSL Limited, Melbourne, Australia) and were passaged either weekly or twice weekly. The characteristics of the Ewing Sarcoma cell lines used herein as described below:
(§4) The tumour cells were immobilised in 0.3% w/v agar containing Iscove's Modified Dulbecco's Medium (IMDM) and 10% v/v FCS. […] Cultures were scored for the presence of colonies (>40 cells) or clusters (<40 cells). The number of cells plated per culture ranged from 500 to 10,000 per ml. Colonies were counted on an Olympus dissecting microscope.
(§5) IL-1, IL-3, IL-4, IL-6, M-CSF, G-CSF, GM-CSF, Stem Cell Factor (SCF), TNFα, TGFα, TGFβ, EGF, aFGF, bFGF, NGF, IGF I, IGF II, PDGF and IFN-γ.
(§6) The recombinant human leukaemia inhibitory factor (LIF) was obtained from AMRAD Corporation Limited, Melbourne, Australia.

[2] = tested on: Ewing's Sarcoma cell line Al-1; test: Colony formation in semi-solid agar cultures, Al-1 cells; type: cell-based, human; details: day 18
Procedure: as §1, §2, §3
(§7) Cell lines derived from the above primary cell lines (Al and Cu) are identified by an Arabic numeral (e.g. Al-1, Al-5, Al-8 or Cu-1).
as §4, §5, §6

[3] = tested on: Ewing's Sarcoma cell line Cu-1; test: Colony formation in semi-solid agar cultures, Cu-1 cells; type: cell-based, human; details: Cu-1, 10,000 cells, day 18
Procedure: as §1, §2, §3, §7, §4, §5, §6

[4] = tested on: Ewing's sarcoma cells from cell line Al-5; test: Clonogenicity in agar after LIF pretreatment in suspension culture; type: cell-based, human
Procedure: Ewing's sarcoma cells from cell line Al-5 in suspension cultures were incubated for seven days in the presence or absence of 100 ng/ml LIF prior to inoculation of replicate agar plates with 5×10^3 cells per ml which were then incubated for a further 18 days before colonies were scored. In all cases, the frequency of colonies obtained from LIF-pretreated cells was 35-55% lower compared to control cells.

[5] = tested on: LIF receptors on Ewing sarcoma cell line Al5; test: 125I-hLIF binding, Scatchard analysis, cloned line Al5; set-up: species or system human; details: Al5 cells, 3 hrs on ice, Scatchard slope, read-out: Equilibrium dissociation constant
Procedure: (§8) A cloned Ewing sarcoma cell line Al5 (7×10^6 per point) in 100 μl of RPMI-medium containing 10 mM Hepes buffer pH 7.4 and 10% v/v foetal calf serum were incubated with increasing concentrations of ^125 I-hLIF (E. coli derived) (5000-800,000 cpm: 100,000 cpm/ng) with or without 5 μg/ml of unlabelled hLIF for 3 hrs on ice. The incubation mixture was then layered over 180 μl cold foetal calf serum, centrifuged at top speed in an Eppendoff microfuge for 10 sec and the tip of the tube containing the cell pellet cut with a scalpel blade and removed for counting in a gamma counter.

[6] = tested on: LIF receptors on different Ewing sarcoma cells; test: 125I-hLIF binding, second independent Scatchard analysis; set-up: species or system human; details: read-out: Equilibrium dissociation constant
Procedure: as §8

[7] = tested on: Ewing's sarcoma cells (cell line A1-5) xenograft; test: Ewing's tumour growth in SCID mice (subcutaneous xenograft); type: in vivo; details: for Histology of subcutaneous tumours / Mitotic figures in tumours: hLIF 20 μg/day, 18 days; for Histology of subcutaneous tumours: Haematoxylin and Eosin; for Mitotic figures in tumours: histology
Excerpt: Scid mice were obtained from the Animal Resource Centre, Willetton, Western Austarlia. All mice were aged 5-8 weeks, and were the same sex (male). Severe immunodeficiency (scid) is an autosomal recessive mutation that occurred spontaneously in the CB 17 (CB-IgH-1^b (N17F34)) congenic strain (16). In this congenic strain, the inbred BALB/c strain carried the immunoglobulin heavy-chain allele (Igh-I^b) of the C57BL/Ka strain. The SCID locus has been mapped to the centromeric end of chromosome 16 (16). These mice have defective T and B cell immunity, thus allowing for engraftment of many foreign cells. The mice were maintained in a laminar flow unit. In order to reduce the mortality from infection, the mice were kept in previously autoclaved cages, and autoclaved food and acidified water was used.
Recombinant human LIF (hLIF) derived from E. coli (Lot 122, AMRAD Corporation Limited) was used. Recombinant mouse LIF (Lot 308, AMRAD Corporation Limited) and PBS/1% w/v BSA were used as controls for the in vivo injections.
5-8×10^6 cloned Ewing's sarcoma cells (cell line A1-5), were injected subcutaneously into SCID mice. Tumours were scored after about 3 weeks in almost all mice at the injection site.
To examine the effect of heterologous and homologous LIF relative to the mammal being treated, a double blind controlled study was performed using tumour bearing SCID mice that were injected with hLIF (20 μg per mouse), mouse LIF (100 ng per mouse), or PBS/1% w/v BSA. The effective amount of hLIF was required to be higher than mLIF due to the presence of high circulating levels of a hLIF binding protein in mice (17). Eight mice were injected in each group with the majority of mice in the hLIF group surviving over 2 weeks (range 15-31 days). Tumour size was assessed using calibrated calibers, with measurements in the depth, length and width of the tumours. […] The trend for smaller tumours in hLIF treated mice was evident prior to the wasting syndrome. Although not wishing to limit the present invention to any one hypothesis as to mode of action, this phenomenon may be a manifestation of LIF toxicity in mice. In most cases, this trend was noticeable within 7 days after hLIF injections.
Histological examination of the subcutaneous tumours was performed on all mice, as was a full necropsy.

[8] = stimulus 100 ng, mean of duplicate colony counts
[9] = hLIF 20 μg per mouse daily s.c.

Substance: LIF: recombinant human leukaemia inhibitory factor (E. coli derived) from AMRAD Corporation Limited
- Colonies/Cultures ([1]; stimulus 0.01 ng): 222
- Colonies/Cultures ([1]; stimulus 0.1 ng): 205
- Colonies/Cultures ([1]; stimulus 1 ng): 160
- Colonies/Cultures ([1]; stimulus 10 ng): 10
- Colonies/Cultures [1, 8]: 8
- Colonies/Cultures ([2]; Al-1, 1,000 cells, stimulus 0.01 ng): 50
- Colonies/Cultures ([2]; Al-1, 1,000 cells, stimulus 0.1 ng): 39
- Colonies/Cultures ([2]; Al-1, 1,000 cells, stimulus 1 ng): 23
- Colonies/Cultures ([2]; Al-1, 1,000 cells, stimulus 10 ng): 24
- Colonies/Cultures ([2]; Al-1, 1,000 cells, stimulus 100 ng, mean of duplicate colony counts): 32
- Colonies/Cultures ([2]; Al-1, 10,000 cells, stimulus 0.01 ng): 695
- Colonies/Cultures ([2]; Al-1, 10,000 cells, stimulus 0.1 ng): 305
- Colonies/Cultures ([2]; Al-1, 10,000 cells, stimulus 1 ng): 129
- Colonies/Cultures ([2]; Al-1, 10,000 cells, stimulus 10 ng): 17
- Colonies/Cultures ([2]; Al-1, 10,000 cells, stimulus 100 ng, mean of duplicate colony counts): 18
- Colonies/Cultures ([3]; stimulus 0.01 ng): 542
- Colonies/Cultures ([3]; stimulus 0.1 ng): 430
- Colonies/Cultures ([3]; stimulus 1 ng): 192
- Colonies/Cultures ([3]; stimulus 10 ng): 97
- Colonies/Cultures [3, 8]: 125
- Frequency of colonies from LIF-pretreated cells, lower compared to control cells ([4]; Al-5, 100 ng/ml LIF for seven days in suspension, then agar 5×10^3 cells per ml, 18 days, three experiments): 35-55%
- Proportion of large colonies in LIF stimulated agar cultures ([4]; pretreatment with LIF in suspension cultures for 7-14 days): further reduced
- Kd [5]: 0.09 nM
- Kd [6]: 0.13 nM
- Time until trend for smaller tumours was noticeable ([7]; after hLIF injections, 20 μg per mouse, in most cases): ≤ 7 days
- Survival of the majority of mice [7, 9]: over 2 weeks
- Tumour size compared to PBS controls [7, 9]: significantly reduced in size; also recorded: significantly smaller
- Survival range of tumour bearing mice ([7]; hLIF 20 μg per mouse daily s.c., eight mice): 15 to 31 days
- Histology of subcutaneous tumours [7]: mainly composed of necrotic areas with only a small percentage of the tumour being made up of viable cells
- Histology of subcutaneous tumours ([7]; listed as human LIF): regressive, nectrotic tumour cells; also recorded: necrotic, regressive tumour cells
- Mitotic figures in tumours [7]: almost no mitotic figures
- Mitotic figures in tumours ([7]; listed as human LIF): lack of mitotic figures
- Viable areas of tumours ([7]; hLIF treated, microscopic examination): < 20%
